Data: ChEMBL document CHEMBL1154027, “Imidazopyridine derivatives as potent and selective Polo-like kinase (PLK) inhibitors” (Bioorg Med Chem Lett, 2009)

How the values were obtained:
[1] = Lipophilicity, Log D of the compound; assay type: physicochemical; settings: octanol/water
[2] = Plasma concentration in F344/NJcl-rnu nude rat at 0.60 mg/kg after 48 hrs; assay type: ADME, organism-based; parameters: dose 0.6 mg/kg; settings: 0.6 mg/kg
[3] = Plasma concentration in F344/NJcl-rnu nude rat at 0.45 mg/kg after 48 hrs; assay type: ADME, organism-based; parameters: dose 0.45 mg/kg

| SMILES | logD [1] | concentration at 48 h [2] [nM] | concentration at 48 h [3] [nM] |
| --- | --- | --- | --- |
| C[C@@H](Oc1cc(-c2cnc3ccccn23)sc1C(N)=O)c1ccc(CO)cc1Cl | 3.8 | – | – |
| C[C@@H](Oc1cc(-c2cnc3ccccn23)sc1C(N)=O)c1ccc(CNC(C)(C)C)cc1OC(F)F | 2.7 | 80 | 50 |
| CCNCc1ccc([C@@H](C)Oc2cc(-c3cnc4ccccn34)sc2C(N)=O)c(Cl)c1 | 2.8 | – | – |
| C[C@@H](Oc1cc(-c2cnc3ccccn23)sc1C(N)=O)c1ccccc1CO | 3.2 | – | – |
| C[C@@H](Oc1cc(-c2cnc3ccccn23)sc1C(N)=O)c1ccc(CN2CCNC(=O)C2)cc1Cl | 2.8 | – | – |
| C[C@@H](Oc1cc(-c2cnc3ccccn23)sc1C(N)=O)c1ccc(CN2CCC(O)CC2)cc1Cl | 3.3 | – | – |
| C[C@@H](Oc1cc(-c2cnc3ccccn23)sc1C(N)=O)c1ccc(CNC(C)(C)C)cc1Cl | 2.9 | – | – |
| C[C@@H](Oc1cc(-c2cnc3ccccn23)sc1C(N)=O)c1ccc(CNCCO)cc1Cl | 2.4 | – | – |
| C[C@@H](Oc1cc(-c2cnc3ccccn23)sc1C(N)=O)c1ccc(CN2CCS(=O)(=O)CC2)cc1Cl | 3.2 | – | – |
| C[C@@H](Oc1cc(-c2cnc3ccccn23)sc1C(N)=O)c1ccc(CN2CCN(C)CC2)cc1Cl | 2.8 | – | – |
| NC(=O)c1sc(-c2cnn3ccccc23)cc1OCc1ccccc1C(F)(F)F | 4.8 | – | – |
| C[C@@H](Oc1cc(-c2cnc3ccccn23)sc1C(N)=O)c1ccccc1Cl | 4.8 | – | – |
| C[C@@H](Oc1cc(-c2cnc3ccccn23)sc1C(N)=O)c1ccc(CNC(C)(C)C)cc1C(F)F | 2.6 | – | – |
| CNCc1ccc([C@@H](C)Oc2cc(-c3cnc4ccccn34)sc2C(N)=O)c(Cl)c1 | 1.9 | – | – |
| C[C@@H](Oc1cc(-c2cnc3ccccn23)sc1C(N)=O)c1ccc(CN2CCC(F)CC2)cc1Cl | 3.7 | – | – |
| CC(Oc1cc(-c2cnc3ccccn23)sc1C(N)=O)c1cc(CO)ccc1Cl (stereo unspecified) | 3.7 | – | – |
| C[C@@H](Oc1cc(-c2cnc3ccccn23)sc1C(N)=O)c1ccc(CN(C)C)cc1Cl | 2.9 | – | – |
| C[C@@H](Oc1cc(-c2cnc3ccccn23)sc1C(N)=O)c1ccc(CNC(C)(C)CO)cc1Cl | 2.9 | – | – |
| NC(=O)c1sc(-n2cnc3ccccc32)cc1OCc1ccccc1C(F)(F)F | 4.6 | – | – |
| C[C@@H](Oc1cc(-c2cnc3ccc(CO)cn23)sc1C(N)=O)c1ccccc1Cl | 4.2 | – | – |
| NC(=O)c1sc(-c2cnc3ccccn23)cc1OCc1ccccc1C(F)(F)F | 4.2 | – | – |
| C[C@@H](Oc1cc(-c2cnc3ccccn23)sc1C(N)=O)c1ccc(CN2CCC(O)C2)cc1Cl (stereo partly specified) | 3.3 | – | – |
| C[C@@H](Oc1cc(-c2cnc3ccccn23)sc1C(N)=O)c1ccc(CNC2CC2)cc1Cl | 3.6 | – | – |
| CC(Oc1cc(-c2cnc3cc(CO)ccn23)sc1C(N)=O)c1ccccc1Cl (racemic) | 4.1 | – | – |
| CC(C)NCc1ccc([C@@H](C)Oc2cc(-c3cnc4ccccn34)sc2C(N)=O)c(Cl)c1 | 2.3 | – | – |
| C[C@@H](Oc1cc(-c2cnc3ccccn23)sc1C(N)=O)c1ccc(CNC2CCCC2)cc1Cl | 3.5 | – | – |
| C[C@@H](Oc1cc(-c2cnc3ccccn23)sc1C(N)=O)c1ccc(CNCCCO)cc1Cl | 2.1 | – | – |
| C[C@@H](Oc1cc(-c2cnc3ccccn23)sc1C(N)=O)c1ccc(CNC(C)(C)C)cc1F | 2.2 | – | – |
| NC(=O)c1sc(-c2cnc3ccccn23)cc1OCc1ccccc1Cl | 4.1 | – | – |
